Experimental data: patent US5321030A, “Creatine analogs having antiviral activity” (priority 1991, dated 1994)

Columns and labels:
[1] = biological target: T1, creatine kinase (Oryctolagus cuniculus, UniProt P00563); details: cited from earlier work
[2] = tested on: HSV-1; experiment: Cytopathic effect (CPE) assay, HSV-1; details: for effect on percent monolayer cell death, second set of experiments: 0-200 PFU, series of concentrations; for protective effect: no agar overlay, highest concentrations tested
[3] = tested on: Guinea Pig Cytomegalovirus, Strain 22122; experiment: CPE reduction assay, guinea pig cytomegalovirus in GPE cells; type: cell-based; details: 12.5 mg/ml
[4] = tested on: Varicella-Zoster Virus, strain Oka; experiment: microbe, parasite or virus in culture; type: cell-based; details: Human alphaherpesvirus 3, MRC5, read-out: plaque reduction
[5] = biological target: T1, creatine kinase; experiment: Phosphorylation by creatine kinase, coupled assay with pyruvate kinase and LDH; type: biochemical; details: 40 mM
Protocol: Compound 5/6 (AM 361), where R=CH3, was prepared as described above and assayed for phosphorylation by creatine kinase in a coupled assay with pyruvate kinase and lactate dehydrogenase (LDH) as described (Bergmeyer, H. U., ed. (1974), In: Methods of Enzymatic Analysis, Second English Edition, Volume 4, (Verlag Chemie Weinheim and Academic Press, Inc.: New York, London) pp. 1772-1779). Each compound listed in Table 11 below was tested at a concentration of 40 mM. Compound 5/6 (AM 361) was slowly phosphorylated.

[6] = Drug cytotoxicity in CPE assay (monolayer death in absence of virus); details: monkey, vero cells
[7] = tested on: Pseudorabies virus, Aujeszky strain; type: cell-based; details: similar assay
[8] = tested on: Vesicular stomatitis virus (VSV), Indiana strain; type: cell-based; details: tested in parallel

T1 sequence (P00563 whole entry): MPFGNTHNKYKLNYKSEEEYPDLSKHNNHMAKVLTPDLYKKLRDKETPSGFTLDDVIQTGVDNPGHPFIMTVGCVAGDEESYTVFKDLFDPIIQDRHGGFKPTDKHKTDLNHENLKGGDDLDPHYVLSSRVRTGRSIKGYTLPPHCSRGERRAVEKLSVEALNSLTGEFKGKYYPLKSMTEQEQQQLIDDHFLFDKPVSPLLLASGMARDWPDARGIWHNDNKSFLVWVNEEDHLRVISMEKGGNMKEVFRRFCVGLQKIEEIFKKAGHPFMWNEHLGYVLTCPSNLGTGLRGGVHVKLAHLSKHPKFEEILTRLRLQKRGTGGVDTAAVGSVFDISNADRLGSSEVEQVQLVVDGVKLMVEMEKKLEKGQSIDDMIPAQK

In the case of `CN(CC(=O)O)C(=N)NP(=O)(O)O` [P-creatine, N-phosphorocreatine, reference compound], the Km ([1]; reverse reaction, without cyclocreatine, read-out: Km of P-creatine) is listed as 1800 µM.
For isoepoxycreatine [reference compound], the “inactivation of creatine kinase” value ([1]; affinity reagent) is listed as “completely and irreversibly inactivate creatine kinase”.
In the case of `Nc1nccn1CC(=O)O` [1-carboxymethyl-2-aminoimidazole, reference compound], the “binding to creatine kinase” value [1] is listed as “an affinity equal to that of cyclocreatine”, the “initial rate of phosphorylation by creatine kinase, slower” value [1] is listed as 5 orders of magnitude and the “dose response against cytopathogenicity” value ([2]; Vero cells, 0.31-5.0 mg/ml, FIG. 16) is listed as “shows no such effect”.
For `N=C1NCCCN1CC(=O)O` [1-carboxymethyl-2-iminohexahydropyrimidine, reference compound], the “effect on percent monolayer cell death, second set of experiments” value (shortened to “effect on percent monolayer cell death”) ([2]; Vero cells) was “no dose-response or consistent protective effect” and the protective effect ([2]; Vero cells, 125 PFUs) was “weak protective effect in some wells”.
In the case of `N=C1NCCN1CCC(=O)O` [homocyclocreatine, 1-carboxyethyl-2-iminoimidazolidine, reference compound], the “Ave. CPE” value [3] is reported as 3.7, the inhibition at 1000 µg/mL [4] is reported as 36% and the inhibition at 2000 µg/mL [4] is reported as 39%. It also gave an inhibition at 4000 µg/mL [4] of 50%.
With “1-carboxymethyl-2-iminomethylimidazolidine [AM 361]” the “% Rate of Creatine” value [5] was 2.4%, the “Δ in Absorbance/min” value [5] was 0.041 and the “effect on cytopathic effect” value ([2]; 22.1 mM, Vero cells) was “reduced the cytopathic effect as compared with the no drug control in wells inoculated with 25 or 50 PFU/well”. For the same compound, the virus-induced monolayer death ([2]; 44.2 mM, Vero cells, each inoculum 12-200 PFU/well (no drug control 30-90%)) was 2% and the “effect on cytopathic effect” value ([2]; 18.2-72.7 mM, serum-starved Vero cells, FIG. 17A) was “inhibited the cytopathic effect”.
In the case of `CN(CC(=O)O)C(=N)N` [creatine], the “% Rate of Creatine” value [5] is reported as 100%, the “Δ in Absorbance/min” value [5] is reported as 1.18 and the activity ([2]; 70 mM, Vero cells, 125 PFUs) is reported as “some activity”.
In the case of `CC(CC(=O)O)C(=N)N` (stereo not shown) [carbocreatine, 3-amidinobutyric acid, reference compound], the “effect on percent monolayer cell death” value ([2]; Vero cells) is reported as “no dose-response or consistent protective effect” and the protective effect ([2]; Vero cells, 125 PFUs) is reported as “weak protective effect in some wells”.
With `CN=C1NCCN1CC(=O)O` [Compound 10a] the “effect on monolayer death” value ([2]; 19.1 mM, 12, 50, 100 or 200 PFU/well, not 25 PFU/well) was “a reduction in monolayer death” and the cytotoxicity at 38200 µM [6] was 5%.
With `CCN(CC(=O)O)C(=N)N` [EGA, N-ethyl-N-amidinoglycine, reference compound] the “effect on percent monolayer cell death” value ([2]; Vero cells) was “no dose-response or consistent protective effect” and the protective effect ([2]; Vero cells, 125 PFUs) was “weak protective effect in some wells”.
For `C=CCN=C1NCCN1CC(=O)O` [Compound 10b], the antiviral effect ([2]; 2.58-45.90 mM, Vero cells, 12-200 PFU/well) was “No consistent antiviral effect”, the cytotoxicity at 23000 µM [6] was 7% and the cytotoxicity at 45900 µM [6] was 30%.
For `N=C(N)NCCC(=O)O` [β-guanidinopropionate, β-guanidinopropionic acid, reference compound], the “effect on percent monolayer cell death” value ([2]; Vero cells) was “no dose-response or consistent protective effect” and the protective effect ([2]; Vero cells, 125 PFUs) was “weak protective effect in some wells”.
With `Nc1ncnc2c1ncn2[C@@H]1O[C@H](CO)[C@@H](O)[C@@H]1O` [adenine arabinoside] the “effect against Pseudorabies virus” value [7] was “ineffective”.
With `NC(=O)c1ncn([C@@H]2O[C@H](CO)[C@@H](O)[C@H]2O)n1` [Ribavirin, reference compound] the “effect on the virus” value [8] was “only a moderate effect”.
With `N=C1NCC(=O)N1CC(=O)O` [Compound 7] the antiviral activity ([2]; 41.7 mM, Vero cells, 12-200 PFU/well) was “consistent antiviral activity” and the cytotoxicity at 41700 µM [6] was 4%.
